Measurements from US20240124510A1, “Cyclic Glycoaminoacid Derivatives” (TFCHEM, priority 2021, published 2024).
Where “and” joins values, the source holds several entries; their conditions need not be identical. Identical values can stand only once.

Key:
[1] = system: normal human dermal fibroblasts (NHDF); experiment: Signalling pathway analysis (Ingenuity Pathway Analysis, activation z-score); conditions: for Activation z- score: 2 mg/ml on NHDF
Excerpt: • Results are considered and presented per gene (and not probe). A probe set is a collection of probes designed to interrogate a given sequence of a gene. […] Gene Ontology database has been more specifically used for the data interpretation. DAVID functional annotation part was used to cluster modulated genes into significant biological processes. […] DAVID database uses the Gene Ontology consortium (http://www.geneontology.org) vocabularies (GO terms) to describe gene products in terms of their associated biological processes. Among them, only biological processes with p-value ≤0.05 were taken into account. • Signal transduction pathway analsis: The results were then processed with IPA (Ingenuity Pathway Analysis, Qiagen®) software to identify signal transduction pathways modulated by each treatment. This software takes into account the Fold Change values of each gene and, when there is enough information, the direction of modulation of the signal transduction pathways can be identified. The relevance of the effect of each treatment on a given pathway was quantified by z-score. The z-score predicts the directional change on that effect.
A more advanced bioinformatics analysis was performed using the Ingenuity Pathway Analysis software (IPA from Qiagen®). This analysis allows the identification of the impacted signalling pathways and predicts their modulation. The modulation is a stimulation when the Activation z-score is a positive value (Table 11) and an inhibition when the Activation z-score is a negative value (Table 12).

[2] = system: human preadipocytes; experiment: Proliferation of preadipocytes in classical differentiation conditions (DAPI nuclei staining); format: cell-based; conditions: 2 mg/ml; for Cells number at the end of the culture, DAPI staining, Mean: differentiated control 10 118 AU
Protocol: Preadipocytes have been isolated from human female hypodermis (body mass index <30 kg/m2 and <45 years old). Preadipocytes have been cultured for 24 h in 100 μl of DMEM-10% Fetal Bovine Serum (FBS) in 96-well plates. Then cells were treated to induce their differentiation in a classical or an inflammatory environment for 13 days.
To induce the preadipocytes differentiation cells were incubated in a proadipogenic cocktail (PAC) including insulin, glucocorticoid, 3-isobutyl-1-methylxanthine (IBMX), and thiazolinedione in DMEM.
To induce a fibro-inflammatory environment, cells were treated with an activated human macrophage-conditioned medium (AcMC) prepared in RPMI medium. A treatment with Dexamethasone (DXM) at 100 nM was used as anti-inflammatory response control. At D0: preadipocytes have been treated in the following conditions: • “Undifferentiation”: DMEM+¼ RPMI medium • “Differentiation”: PAC+¼ RPMI medium • “AcMC” i.e. inflammatory condition: PAC+¼ AcMC • “AcMC+DXM”: PAC+[…] AcMC+anti-inflammatory DXM at 100 nM • “AcMc+compounds”: PAC+14 AcMC+compounds to be tested
All conditions have been performed in triplicate. The medium has been changed every 2 days for 13 days.
The number of cells was determined for each condition by DAPI nuclei staining (nuclei) and expressed in arbitrary unit.

[3] = system: procollagen I; experiment: Procollagen I secretion in coculture of human aged fibroblasts and mature adipocytes (ELISA); format: cell-based; conditions: for secretion of Procollagen I, normalized by fibroblasts number, in percentage of the coculture control condition, Values: individual replicates
Excerpt: In order to evaluate its effect on fibroblast matrix and its anti-inflammatory properties, the effect of compound 6 has been tested on an adipocytes-aged fibroblasts coculture model, mimicking the interactions between dermis and hypodermis in the skin and allowed to explore in parallel the biological effects of the products on two cellular targets.
• Experimental model: co-culture of human mature adipocytes cultured in 3D and human dermal fibroblasts cultured in 2D (AM3D-FB2D co-culture). This experimental model of AM3D-FB2D co-culture mimicked the interactions between dermis and hypodermis in the skin and allowed to explore in parallel the biological effects of the products on two cellular targets. • Donor characteristics: This study was performed on mature adipocytes and fibroblasts from two different donors (one donor for mature adipocytes and another donor for dermal fibroblasts). • Fibroblasts donor=person, BMI=28 kg/m^2 • Adipocytes donor=person, BMI=21.4 kg/m^2 • Treatment procedure: compound 6 was added to the co-culture medium daily for up to 6 days
Dermal fibroblasts were seeded in DMEM 10% FBS at 10000 cells/well. The day after, the adipocytes capsules of 50 μl were added in suspension above the fibroblasts and the medium was changed and replaced by a specific culture medium for the co-culture AM3D-FB2D. The formation of adipocytes capsules followed an internal standardized protocol. Briefly, the fully mature adipocytes were isolated from the hypodermis after digestion by collagenase. The isolated adipocytes were then washed with a wash buffer and encapsulated in a peptidic hydrogel to form 3D adipocytes capsules of 50 μl in size. Cells were incubated at 37° C. and 5% CO2 overnight for stabilization. Treatments were initiated at DO with a medium change at DO, D2, D3 and D5. The entire culture media of 24 h incubation was collected at D3 and D6, before being centrifugated and stored at −80° C. Each culture condition was done in triplicate.
The biochemical analyses on culture media were performed via ELISA using specific kits according to the manufacturer's recommendations: IL-6 (Duoset DY206, R&D Systems), and Hyaluronic Acid (HA) (Duoset, DY3614-05, R&D Systems and Procollagen I (Duoset, DY6220-05, R&D Systems) The results of HA and Procollagen I were normalized by fibroblasts cell number regarding the fact that these molecules were secreted mainly by fibroblasts. All the biochemical results were represented in percentage of the control condition.
To evaluate the effect of the compound 6 on fibroblasts' matrix, the extracellular concentrations of Procollagen I, that is secreted only by the fibroblasts, were measured at D3 and D6.

## N[C@H]1CCCN(CC(F)(F)[C@]2(O)O[C@H](CO)[C@H](O)[C@H](O)[C@H]2O)C1=O [Compound 6]
[1]; Diseases or Functions Annotation: Differentiation of adipocytes
  Activation z- score: 0.545
[1]; Diseases or Functions Annotation: Metabolism of cholesterol
  Activation z- score: 1.421
[1]; Diseases or Functions Annotation: Synthesis of cholesterol
  Activation z- score: 0.998
[1]; Diseases or Functions Annotation: Synthesis of lipids, z-score >0 = increased
  Activation z- score: 1.380
[1]; treatment of NHDF
  Regulation of fibrogenesis, tensile strength of skin, synthesis of ROS, inflammatory response and chronic inflammatory disorder at a transcriptional level: down regulation
  Regulation of lipid and cholesterol synthesis and differentiation of adipocytes at a transcriptional level: up regulation
[2]
  Cells number at the end of the culture, DAPI staining, Mean: 13197 AU
[2]; listed as compound 6
  Cells number at the end of the culture, DAPI staining, Mean: 13 197 AU
[2]; single replicates
  Cells number at the end of the culture (DAPI staining), Values: 13454 AU and 12839 AU and 13298 AU
[3]; D3, 1 mg/ml
  secretion of Procollagen I, normalized by fibroblasts number, in percentage of the coculture control condition, Mean: 163%
  secretion of Procollagen I, normalized by fibroblasts number, in percentage of the coculture control condition, Values: 162% and 158% and 168%
[3]; D3, 2 mg/ml
  secretion of Procollagen I, normalized by fibroblasts number, in percentage of the coculture control condition, Mean: 159%
  secretion of Procollagen I, normalized by fibroblasts number, in percentage of the coculture control condition, Values: 177% and 144% and 157%
[3]; D3, 3 mg/ml
  secretion of Procollagen I, normalized by fibroblasts number, in percentage of the coculture control condition, Mean: 173%
  secretion of Procollagen I, normalized by fibroblasts number, in percentage of the coculture control condition, Values: 202% and 78% and 238%
[3]; D6, 1 mg/ml
  secretion of Procollagen I, normalized by fibroblasts number, in percentage of the coculture control condition, Mean: 418%
  secretion of Procollagen I, normalized by fibroblasts number, in percentage of the coculture control condition, Values: 312% and 472% and 469%
[3]; D6, 2 mg/ml
  secretion of Procollagen I, normalized by fibroblasts number, in percentage of the coculture control condition, Mean: 411%
  secretion of Procollagen I, normalized by fibroblasts number, in percentage of the coculture control condition, Values: 284% and 488% and 460%
[3]; D6, 3 mg/ml
  secretion of Procollagen I, normalized by fibroblasts number, in percentage of the coculture control condition, Mean: 474%
  secretion of Procollagen I, normalized by fibroblasts number, in percentage of the coculture control condition, Values: 515% and 398% and 508%
